# Results: patent US7737288B2, “Non-steroidal androgen receptor modulators, preparation process, pharmaceutical composition and use thereof” (Shanghai Institute of Materia Medica Chinese Academy of …, priority 2005, dated 2010)
# Like-named read-outs stand apart in the source and are kept apart here.
# Legend:
# androgen receptor [1] = target: T1, androgen receptor (Homo sapiens, UniProt P10275); test: Test of receptor binding activity ([3H]DHT competition, hydroxyapatite); details: competition with 5 nM [3H]DHT, overnight at 4° C.
# T1 construct: made in house; host or cells: insect cells (baculovirus expression system)
# T1 sequence (P10275 1-920): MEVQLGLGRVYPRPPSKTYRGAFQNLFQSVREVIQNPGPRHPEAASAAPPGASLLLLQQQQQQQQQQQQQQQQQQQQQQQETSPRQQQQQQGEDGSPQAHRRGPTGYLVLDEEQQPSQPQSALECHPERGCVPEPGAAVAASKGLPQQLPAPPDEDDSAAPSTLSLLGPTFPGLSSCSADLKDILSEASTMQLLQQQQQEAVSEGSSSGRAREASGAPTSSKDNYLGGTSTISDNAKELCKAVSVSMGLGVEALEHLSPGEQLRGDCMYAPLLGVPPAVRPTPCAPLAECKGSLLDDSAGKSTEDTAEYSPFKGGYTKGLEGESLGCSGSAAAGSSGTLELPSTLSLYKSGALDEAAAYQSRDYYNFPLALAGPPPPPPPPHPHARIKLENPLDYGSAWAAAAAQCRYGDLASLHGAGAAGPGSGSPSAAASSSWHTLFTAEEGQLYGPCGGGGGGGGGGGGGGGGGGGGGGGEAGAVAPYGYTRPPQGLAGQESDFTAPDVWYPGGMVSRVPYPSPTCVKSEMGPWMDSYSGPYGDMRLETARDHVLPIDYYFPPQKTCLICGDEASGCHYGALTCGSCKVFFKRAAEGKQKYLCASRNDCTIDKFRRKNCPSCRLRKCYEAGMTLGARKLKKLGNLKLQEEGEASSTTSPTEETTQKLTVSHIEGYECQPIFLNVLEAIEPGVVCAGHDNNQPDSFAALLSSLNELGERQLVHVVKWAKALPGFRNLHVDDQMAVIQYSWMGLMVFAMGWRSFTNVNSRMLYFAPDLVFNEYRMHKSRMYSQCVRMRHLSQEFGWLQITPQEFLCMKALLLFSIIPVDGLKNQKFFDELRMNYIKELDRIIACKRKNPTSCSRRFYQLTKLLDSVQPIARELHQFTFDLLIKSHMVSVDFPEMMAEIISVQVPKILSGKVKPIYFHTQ
# Description: Then the resultant mixture was added into the plates with a volume of 195 μl each well immediately after mixed thoroughly, and incubated overnight at 4° C. After the incubation was completed, 50 μl of hydroxyapatite (HA) solution (25% HA, 25 mM Na3PO4, pH7.4) was added to each well of the calandria, uniformly mixed by shaking, and incubated for 10 minutes, during the period it was shaken once every 3 minutes. The centrifugation was conducted at 2500 rpm for 3 minutes, the supernatant was sucked out, and the precipitate was reserved. Two hundred μl of the assay buffer was added into each well, the precipitate is avoided to be shaken as far as possible, and the centrifugation was conducted for 3 minutes again. The supernatant was sucked out, and the precipitate was reserved. The centrifugation was repeated once, the supernatant was sucked out, and the precipitate was reserved. 300 μl of scintillation fluid was added to each well.
# androgen receptor [2] = test: Test of reporter gene expression (luciferase) in transfected MDA-MB-453 cells; type: cell-based, human
# LNCaP cells = test: Test of prostate cancer cell proliferation induced by DHT (MTT); type: cell-based; details: Homo sapiens, 144 h, read-out: IC50, inhibition of LNCaP cell proliferation stimulated by DHT
# Description: LNCaP cells were cultured in RPMI1640 medium containing 10% FBS and 2 mM L-glutamine. The above medium was replaced by RPMI1640 medium containing 5% CD-FBS one day before experiment. When the cells grew to 90% confluence, the cells were added to 96-well plate with 4000 cells/90 μL/well after dissociated with trypsin, and were cultured at 37° C. overnight. The compounds to be tested were added to the cells with 10 μL/well after diluted to certain concentrations. […]. […] MTT solution (5 mg/mL) was added with 20 μL/well before the culture was completed. Light absorption values at 560 nm were measured with the reference wavelength of 690 nm.
# [3] = read-out: Receptor binding (IC50)
SMILES,melting point [°C],IC50 (androgen receptor [1]; [3]) [nM],other results
"Cc1ccc(C(=O)CC(Nc2ccc(C(=O)O)cc2)c2ccccc2)cc1 (stereo not drawn) [Example 4, 3-phenyl-3-(4-carboxylanilino)-1-(4-methylphenyl)-1-acetone]",208 to 210,,
O=C(CC(Nc1ccc([N+](=O)[O-])c(C(F)(F)F)c1)c1ccccc1)c1ccc(Cl)cc1 (stereo not drawn) [MWW6016],,,"IC50 (androgen receptor [1]; Receptor binding (IC50, nM)): 9.49 nM"
"Cc1ccc(C(=O)CC(Nc2ccc(Cl)cc2)c2ccccc2)cc1 (stereo not drawn) [Example 1, 3-phenyl-3-(4-chloroanilino)-1-(4-methylphenyl)-1-acetone]",152 to 154,,
"Cc1ccc(C(=O)CC(Nc2ccc([N+](=O)[O-])cc2)c2ccccc2)cc1 (stereo not drawn) [Example 3, 3-phenyl-3-(4-nitroanilino)-1-(4-methylphenyl)-1-acetone]",157 to 159,,
O=C(CC(Nc1ccc([N+](=O)[O-])cc1)c1ccco1)c1ccc(Cl)cc1 (stereo not drawn) [MWW6032],,,"IC50 (LNCaP cells): 2280 nM; androgen receptor antagonistic activities, IC50 compared with bicalutamide (androgen receptor [2]): close to the androgen receptor antagonist bicalutamide"
"Cc1ccc(C(=O)CC(Nc2ccccc2)c2ccc(C)cc2)cc1 (stereo not drawn) [Example 5, 3-(4-methylphenyl)-3-anilino-1-(4-methylphenyl)-1-acetone]",131 to 132,,

# Continued, in another order:
melting point [°C],IC50 (androgen receptor [1]; [3]) [nM],SMILES,other results
,2.85,O=C(CC(Nc1ccc([N+](=O)[O-])cc1)c1ccccc1)c1ccc(Br)cc1 (stereo not drawn) [MWW6015],
,4.31,O=C(CC(Nc1ccc(Cl)c([N+](=O)[O-])c1)c1ccccc1)c1ccc(Br)cc1 (stereo not drawn) [MWW6022],
,2.93,O=C(CC(Nc1ccc([N+](=O)[O-])cc1)c1ccccc1)c1ccc(Cl)cc1 (stereo not drawn) [MWW6003],"androgen receptor antagonistic activities, IC50 compared with bicalutamide (androgen receptor [2]): close to the androgen receptor antagonist bicalutamide"
,3.25,O=C(CC(Nc1ccc(Cl)c([N+](=O)[O-])c1)c1ccco1)c1ccc(Cl)cc1 (stereo not drawn) [MWW6030],
,3.01,O=C(CC(Nc1ccc([N+](=O)[O-])cc1)c1ccco1)c1ccc(Br)cc1 (stereo not drawn) [MWW6033],
,6.45,O=C(CC(Nc1ccc(Cl)c([N+](=O)[O-])c1)c1ccccc1)c1ccc(Cl)cc1 (stereo not drawn) [MWW6021],
,3.61,O=C(CC(Nc1ccc(Cl)c([N+](=O)[O-])c1)c1ccco1)c1ccc(Br)cc1 (stereo not drawn) [MWW6031],
